The results in this text go back to ChEMBL document CHEMBL3046496, “Hydrolysis and Phytotoxic Activity ofN-Aryl-3,4,5,6-tetrahydroisophthalimides” (Biosci Biotechnol Biochem, 1993).

As usually defined, the half-life is how long it takes for the measured level to halve. Higher therefore signals slow decline.

Common to all, as to format: ADME, organism-based
The test system of one data set is Scenedesmus acutus. Nature of the data set: Phytotoxic activity against Scenedesmus acutus assessed as protoporphyrin-IX accumulation at 1 uM incubated for 1 hr. The settings on record: in vivo.
A short description of data set [1]: Drug hydrolysis in culture medium of Echinochloa esculenta assessed as compound degradation measured at zero period in culture experiment by HPLC method. The settings on record: read-out: Drug degradation.
The nature of data set [2]: Half life in culture medium of Echinochloa esculenta after 7 days by HPLC method.

On to `O=C(O)C1=C(C(=O)Nc2ccc(Cl)cc2)CCCC1`, for which, in the data set with Scenedesmus acutus, the Activity is 17.6 nmol/mL. With `Cc1cc(Cl)ccc1/N=C1\OC(=O)C2=C1CCCC2`, the degraded in data set [1] was found to be 33%. The molecule further showed a half-life in data set [2] of 7.2 h. For the molecule `O=C1O/C(=N\c2ccc(OCc3ccc(Cl)cc3)cc2)C2=C1CCCC2`, in data set [1], the degraded came out at 5%. Further, the half-life in data set [2] was 57.6 h. As to `C#CCOc1cc(/N=C2\OC(=O)C3=C2CCCC3)c(F)cc1Cl`, in data set [1], the degraded stood at 32%. In data set [2], this molecule had a half-life of 14.4 h. Take `O=C1O/C(=N\c2ccc(Cl)cc2F)C2=C1CCCC2`: the degraded in data set [1] amounted to 68%. On to `O=C1O/C(=N\c2ccc(Cl)cc2)C2=C1CCCC2`, for which the degraded in data set [1] amounted to 10%. This molecule gave a half-life in data set [2] of 19.2 h. In the data set with Scenedesmus acutus, the Activity came out at 54.7 nmol/mL.

Turning to `O=C1C2=C(CCCC2)C(=O)N1c1ccc(Cl)cc1` [CHLOROPHTHALIUM], in the data set on Scenedesmus acutus, the Activity is 68.2 nmol/mL.
